Measurements as given in PubChem BioAssay (NCI).
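Five compound concentrations were applied to cells in 96-well plates for 48 hours; endpoints were derived by simple linear interpolation of the resulting dose-response curve. TGI: total growth inhibition.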

test system: SK-MEL-2 melanoma; experiment: DTP human tumour cell line panel, 48 h

Which TGI does the source give for `Cc1ccc(C(=O)NCc2ccccc2)cc1N=NN(C)C` here?
Its TGI is greater than 100 µM.

Which TGI does the source give for `c1ccc2c3[nH]c(c2c1)=Nc1ccc(cc1)-c1nc2ccc(cc2o1)N=c1[nH]c(c2ccccc12)=Nc1ccc2nc(oc2c1)-c1ccc(cc1)N=3` here?
The TGI was greater than 100 µM.

For `COc1cccc(CC(=O)N2CCN(CCCc3ccccc3)CC2)c1`, which TGI is on record?
Its TGI is greater than 100 µM.

Which TGI does the source give for `Cn1c(=S)c2[nH]c(SCCCc3ccccc3)nc2n(C)c1=O` here?
The TGI was greater than 100 µM.

How did the TGI turn out when `O=C1CC(=O)NC(=NN2C(=O)/C(=C/c3ccc(Cl)c(Cl)c3)N=C2c2ccccc2)N1` was run?
The TGI was 34.4 µM.

Which TGI does the source give for `CC1=NC(C)(COC(=O)C2(C)NC(C)(CO)CO2)COC1=O` (stereo not given) here?
Its TGI is greater than 100 µM.

`CC(=O)NC1C(Sc2ncn(C3OC(CO)C(O)C(O)C3NC(C)=O)n2)OC(CO)C(O)C1O` (stereo not given) was tested. Which TGI did it give?
Its TGI is greater than 100 µM.

test system: SNB-19 CNS; experiment: DTP human tumour cell line panel, 48 h

How did the TGI turn out when `Cc1ccc(C(=O)NCc2ccccc2)cc1N=NN(C)C` was run?
The TGI was greater than 100 µM.

For `c1ccc2c3[nH]c(c2c1)=Nc1ccc(cc1)-c1nc2ccc(cc2o1)N=c1[nH]c(c2ccccc12)=Nc1ccc2nc(oc2c1)-c1ccc(cc1)N=3`, which TGI is on record?
Its TGI is 81 µM.

`COc1cccc(CC(=O)N2CCN(CCCc3ccccc3)CC2)c1` was tested. Which TGI did it give?
Its TGI is greater than 100 µM.

With `Cn1c(=S)c2[nH]c(SCCCc3ccccc3)nc2n(C)c1=O` as the compound, how does the TGI read?
The TGI was 53.6 µM.

For `CC1=NC(C)(COC(=O)C2(C)NC(C)(CO)CO2)COC1=O` (stereo not given), which TGI is on record?
Its TGI is greater than 100 µM.

With `CC(=O)NC1C(Sc2ncn(C3OC(CO)C(O)C(O)C3NC(C)=O)n2)OC(CO)C(O)C1O` (stereo not given) as the compound, how does the TGI read?
The TGI was greater than 100 µM.

test system: DLD-1 colon; experiment: DTP human tumour cell line panel, 48 h

Which TGI does the source give for `Cc1ccc(C(=O)NCc2ccccc2)cc1N=NN(C)C` here?
Its TGI is greater than 100 µM.

test system: A498 renal; experiment: DTP human tumour cell line panel, 48 h

For `c1ccc2c3[nH]c(c2c1)=Nc1ccc(cc1)-c1nc2ccc(cc2o1)N=c1[nH]c(c2ccccc12)=Nc1ccc2nc(oc2c1)-c1ccc(cc1)N=3`, which TGI is on record?
The TGI was greater than 100 µM.

Which TGI does the source give for `COc1cccc(CC(=O)N2CCN(CCCc3ccccc3)CC2)c1` here?
Its TGI is greater than 100 µM.

For `Cn1c(=S)c2[nH]c(SCCCc3ccccc3)nc2n(C)c1=O`, which TGI is on record?
Its TGI is 49.1 µM.

Which TGI does the source give for `O=C1CC(=O)NC(=NN2C(=O)/C(=C/c3ccc(Cl)c(Cl)c3)N=C2c2ccccc2)N1` here?
The TGI was 62.9 µM.

`CC1=NC(C)(COC(=O)C2(C)NC(C)(CO)CO2)COC1=O` (stereo not given) was tested. Which TGI did it give?
Its TGI is greater than 100 µM.

Which TGI does the source give for `CC(=O)NC1C(Sc2ncn(C3OC(CO)C(O)C(O)C3NC(C)=O)n2)OC(CO)C(O)C1O` (stereo not given) here?
Its TGI is greater than 100 µM.

test system: HT29 colon; experiment: DTP human tumour cell line panel, 48 h

For `Cc1ccc(C(=O)NCc2ccccc2)cc1N=NN(C)C`, which TGI is on record?
Its TGI is greater than 100 µM.

`c1ccc2c3[nH]c(c2c1)=Nc1ccc(cc1)-c1nc2ccc(cc2o1)N=c1[nH]c(c2ccccc12)=Nc1ccc2nc(oc2c1)-c1ccc(cc1)N=3` was tested. Which TGI did it give?
Its TGI is greater than 100 µM.

How did the TGI turn out when `COc1cccc(CC(=O)N2CCN(CCCc3ccccc3)CC2)c1` was run?
The TGI was greater than 100 µM.

With `Cn1c(=S)c2[nH]c(SCCCc3ccccc3)nc2n(C)c1=O` as the compound, how does the TGI read?
Its TGI is greater than 100 µM.

`O=C1CC(=O)NC(=NN2C(=O)/C(=C/c3ccc(Cl)c(Cl)c3)N=C2c2ccccc2)N1` was tested. Which TGI did it give?
The TGI was 44.4 µM.

How did the TGI turn out when `CC1=NC(C)(COC(=O)C2(C)NC(C)(CO)CO2)COC1=O` (stereo not given) was run?
Its TGI is greater than 100 µM.

For `CC(=O)NC1C(Sc2ncn(C3OC(CO)C(O)C(O)C3NC(C)=O)n2)OC(CO)C(O)C1O` (stereo not given), which TGI is on record?
Its TGI is greater than 100 µM.

test system: OVCAR-5 ovarian; experiment: DTP human tumour cell line panel, 48 h

With `Cc1ccc(C(=O)NCc2ccccc2)cc1N=NN(C)C` as the compound, how does the TGI read?
Its TGI is greater than 100 µM.

How did the TGI turn out when `c1ccc2c3[nH]c(c2c1)=Nc1ccc(cc1)-c1nc2ccc(cc2o1)N=c1[nH]c(c2ccccc12)=Nc1ccc2nc(oc2c1)-c1ccc(cc1)N=3` was run?
Its TGI is greater than 100 µM.

Which TGI does the source give for `COc1cccc(CC(=O)N2CCN(CCCc3ccccc3)CC2)c1` here?
Its TGI is greater than 100 µM.

How did the TGI turn out when `Cn1c(=S)c2[nH]c(SCCCc3ccccc3)nc2n(C)c1=O` was run?
The TGI was 93.3 µM.

How did the TGI turn out when `O=C1CC(=O)NC(=NN2C(=O)/C(=C/c3ccc(Cl)c(Cl)c3)N=C2c2ccccc2)N1` was run?
The TGI was greater than 100 µM.

Which TGI does the source give for `CC1=NC(C)(COC(=O)C2(C)NC(C)(CO)CO2)COC1=O` (stereo not given) here?
Its TGI is greater than 100 µM.

`CC(=O)NC1C(Sc2ncn(C3OC(CO)C(O)C(O)C3NC(C)=O)n2)OC(CO)C(O)C1O` (stereo not given) was tested. Which TGI did it give?
The TGI was greater than 100 µM.

test system: SW-620 colon; experiment: DTP human tumour cell line panel, 48 h

How did the TGI turn out when `Cc1ccc(C(=O)NCc2ccccc2)cc1N=NN(C)C` was run?
Its TGI is greater than 100 µM.

How did the TGI turn out when `c1ccc2c3[nH]c(c2c1)=Nc1ccc(cc1)-c1nc2ccc(cc2o1)N=c1[nH]c(c2ccccc12)=Nc1ccc2nc(oc2c1)-c1ccc(cc1)N=3` was run?
The TGI was greater than 100 µM.

For `COc1cccc(CC(=O)N2CCN(CCCc3ccccc3)CC2)c1`, which TGI is on record?
Its TGI is greater than 100 µM.

With `Cn1c(=S)c2[nH]c(SCCCc3ccccc3)nc2n(C)c1=O` as the compound, how does the TGI read?
The TGI was greater than 100 µM.

How did the TGI turn out when `O=C1CC(=O)NC(=NN2C(=O)/C(=C/c3ccc(Cl)c(Cl)c3)N=C2c2ccccc2)N1` was run?
Its TGI is greater than 100 µM.

Which TGI does the source give for `CC1=NC(C)(COC(=O)C2(C)NC(C)(CO)CO2)COC1=O` (stereo not given) here?
The TGI was greater than 100 µM.

For `CC(=O)NC1C(Sc2ncn(C3OC(CO)C(O)C(O)C3NC(C)=O)n2)OC(CO)C(O)C1O` (stereo not given), which TGI is on record?
Its TGI is greater than 100 µM.

test system: MALME-3M melanoma; experiment: DTP human tumour cell line panel, 48 h

How did the TGI turn out when `Cc1ccc(C(=O)NCc2ccccc2)cc1N=NN(C)C` was run?
The TGI was greater than 100 µM.

`Cn1c(=S)c2[nH]c(SCCCc3ccccc3)nc2n(C)c1=O` was tested. Which TGI did it give?
The TGI was greater than 100 µM.

`O=C1CC(=O)NC(=NN2C(=O)/C(=C/c3ccc(Cl)c(Cl)c3)N=C2c2ccccc2)N1` was tested. Which TGI did it give?
The TGI was greater than 100 µM.

How did the TGI turn out when `CC1=NC(C)(COC(=O)C2(C)NC(C)(CO)CO2)COC1=O` (stereo not given) was run?
The TGI was greater than 100 µM.

`CC(=O)NC1C(Sc2ncn(C3OC(CO)C(O)C(O)C3NC(C)=O)n2)OC(CO)C(O)C1O` (stereo not given) was tested. Which TGI did it give?
Its TGI is greater than 100 µM.

test system: K-562 leukemia; experiment: DTP human tumour cell line panel, 48 h

`Cc1ccc(C(=O)NCc2ccccc2)cc1N=NN(C)C` was tested. Which TGI did it give?
The TGI was greater than 100 µM.

For `c1ccc2c3[nH]c(c2c1)=Nc1ccc(cc1)-c1nc2ccc(cc2o1)N=c1[nH]c(c2ccccc12)=Nc1ccc2nc(oc2c1)-c1ccc(cc1)N=3`, which TGI is on record?
Its TGI is 51.5 µM.

`COc1cccc(CC(=O)N2CCN(CCCc3ccccc3)CC2)c1` was tested. Which TGI did it give?
The TGI was greater than 100 µM.

For `Cn1c(=S)c2[nH]c(SCCCc3ccccc3)nc2n(C)c1=O`, which TGI is on record?
The TGI was greater than 100 µM.
